“And” between values parts separate entries of the source, which are not always exact repeats. Identical values can stand only once. Toxic doses and inconclusive results are not listed.
Tested on: BDF1 mice, B16 melanoma ip, median survival T/C
Assay: NCI In Vivo Anticancer Drug Screen. Data for tumor model B16 Melanoma (intraperitoneal) in B6D2F1 (BDF1) mice
Details: endpoint: median survival time, higher = longer survival
How it was run: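 Values are ratios of treated (T) to vehicle-control (C) measurements of survival or tumor size in tumor-bearing mice.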

[1] = dose: 6.25 mg/kg/injection, schedule: Q01DX009 (ip), vehicle: Klucel (hydroxypropylcellulose) (HPC)
[2] = dose: 12.5 mg/kg/injection, schedule: Q01DX009 (ip), vehicle: Klucel (hydroxypropylcellulose) (HPC)
[3] = dose: 50.0 mg/kg/injection, schedule: Q01DX009 (ip), vehicle: saline with Tween-80
[4] = dose: 100.0 mg/kg/injection, schedule: Q01DX009 (ip), vehicle: saline with Tween-80
[5] = dose: 200.0 mg/kg/injection, schedule: Q01DX009 (ip), vehicle: saline with Tween-80
[6] = dose: 25.0 mg/kg/injection, schedule: Q01DX009 (ip), vehicle: Klucel (hydroxypropylcellulose) (HPC)
[7] = dose: 50.0 mg/kg/injection, schedule: Q01DX009 (ip), vehicle: Klucel (hydroxypropylcellulose) (HPC)
[8] = dose: 100.0 mg/kg/injection, schedule: Q01DX009 (ip), vehicle: Klucel (hydroxypropylcellulose) (HPC)

CCCC(=O)OCC1OC(n2cnc3c(=S)nc(N)[nH]c32)C(OC(=O)CCC)C1OC(=O)CCC (stereo not drawn) was tested, and the T/C (dose: 0.78 mg/kg/injection, schedule: Q01DX009 (ip), vehicle: Klucel (hydroxypropylcellulose) (HPC)) was 106 % of control, the T/C (dose: 1.56 mg/kg/injection, schedule: Q01DX009 (ip), vehicle: Klucel (hydroxypropylcellulose) (HPC)) was 112 % of control and the T/C (dose: 3.12 mg/kg/injection, schedule: Q01DX009 (ip), vehicle: Klucel (hydroxypropylcellulose) (HPC)) was 113 % of control. For the same compound, the T/C [1] was 103 % of control and 106 % of control and the T/C [2] was 87 % of control.

Cc1ncc([N+](=O)[O-])n1CCO was tested, and the T/C (dose: 18.7 mg/kg/injection, schedule: Q01DX009 (ip), vehicle: Klucel (hydroxypropylcellulose) (HPC)) was 104 % of control, the T/C (dose: 37.5 mg/kg/injection, schedule: Q01DX009 (ip), vehicle: Klucel (hydroxypropylcellulose) (HPC)) was 118 % of control and the T/C (dose: 75.0 mg/kg/injection, schedule: Q01DX009 (ip), vehicle: Klucel (hydroxypropylcellulose) (HPC)) was 115 % of control. The T/C (dose: 150.0 mg/kg/injection, schedule: Q01DX009 (ip), vehicle: Klucel (hydroxypropylcellulose) (HPC)) was 102 % of control, the T/C (dose: 300.0 mg/kg/injection, schedule: Q01DX009 (ip), vehicle: Klucel (hydroxypropylcellulose) (HPC)) was 113 % of control and the T/C (dose: 600.0 mg/kg/injection, schedule: Q01DX009 (ip), vehicle: Klucel (hydroxypropylcellulose) (HPC)) was 106 % of control.

With CC1(C)C=C(C(Br)c2ccc(Cl)cc2)C(=O)c2ccccc21 (stereo not drawn) the T/C [3] was 103 % of control, the T/C [4] was 106 % of control and the T/C [5] was 99 % of control. For the same compound, the T/C (dose: 400.0 mg/kg/injection, schedule: Q01DX009 (ip), vehicle: saline with Tween-80) was 97 % of control.

For CCOC(=O)C(=CN1CCCCCC1)C(=O)OCC, the T/C [4] was 102 % of control, the T/C (dose: 100.0 mg/kg/injection, schedule: Q04DX003 (ip), vehicle: saline with Tween-80) was 97 % of control and the T/C [5] was 101 % of control. The T/C (dose: 200.0 mg/kg/injection, schedule: Q04DX003 (ip), vehicle: saline with Tween-80) was 95 % of control and the T/C (dose: 400.0 mg/kg/injection, schedule: Q04DX003 (ip), vehicle: saline with Tween-80) was 92 % of control.

COC(=O)[C@@H]1[C@H](O)[C@H](C)[C@H](O)[C@@](C)(O)/C=C\C=C(C)C(=O)Nc2c(C)c(OC(C)=O)c3c(c2O)C(=O)C(C)=C2OCOC(=C23)C(C)=C[C@@](C)(O)[C@H](O)[C@@H](C)[C@H]1OC(C)=O was tested, and the T/C [1] was 106 % of control, the T/C [2] was 99 % of control and the T/C [6] was 90 % of control. The T/C [7] was 91 % of control, the T/C (dose: 75.0 mg/kg/injection, schedule: Q01DX009 (ip), vehicle: saline with Tween-80) was 97 % of control and the T/C [8] was 95 % of control. For the same compound, the T/C (dose: 150.0 mg/kg/injection, schedule: Q01DX009 (ip), vehicle: saline with Tween-80) was 91 % of control and the T/C (dose: 300.0 mg/kg/injection, schedule: Q01DX009 (ip), vehicle: saline with Tween-80) was 87 % of control.

In the case of c1ccc(-c2csc3c4ccccc4c4ccccc4[n+]23)cc1, the T/C (dose: 0.5 mg/kg/injection, schedule: Q01DX009 (ip), vehicle: saline with Tween-80) is reported as 95 % of control, the T/C (dose: 1.0 mg/kg/injection, schedule: Q01DX009 (ip), vehicle: saline with Tween-80) is reported as 95 % of control and the T/C (dose: 2.0 mg/kg/injection, schedule: Q01DX009 (ip), vehicle: saline with Tween-80) is reported as 93 % of control.

With CC12CCC3C(CCC4CC(OC(=O)Cc5ccc(N(CCCl)CCCl)cc5)CCC43C)C1CCC(=O)N2 (stereo not drawn) the T/C (dose: 0.75 mg/kg/injection, schedule: Q01DX009 (ip), vehicle: saline) was 113 % of control, the T/C (dose: 1.5 mg/kg/injection, schedule: Q01DX009 (ip), vehicle: saline with Tween-80) was 110 % of control and the T/C (dose: 1.5 mg/kg/injection, schedule: Q01DX009 (ip), vehicle: saline) was 121 % of control. The T/C (dose: 3.0 mg/kg/injection, schedule: Q01DX009 (ip), vehicle: saline) was 121 % of control and the T/C (dose: 12.0 mg/kg/injection, schedule: Q01DX009 (ip), vehicle: saline) was 154 % of control.

In the case of C[n+]1ccc(Nc2ccc(NC(=O)c3ccc(Nc4cc[n+](C)c5ccc([N+](=O)[O-])cc45)cc3[N+](=O)[O-])cc2)cc1, the T/C (dose: 12.5 mg/kg/injection, schedule: Q01DX009 (ip), vehicle: saline with Tween-80) is reported as 95 % of control and the T/C (dose: 25.0 mg/kg/injection, schedule: Q01DX009 (ip), vehicle: saline with Tween-80) is reported as 100 % of control.

For O=C1c2ccccc2C(=O)c2c(NCCCCCO)ccc(NCCCCCO)c21, the T/C (dose: 8.0 mg/kg/injection, schedule: Q01DX009 (ip), vehicle: Klucel (hydroxypropylcellulose) (HPC)) was 99 % of control, the T/C (dose: 16.0 mg/kg/injection, schedule: Q01DX009 (ip), vehicle: Klucel (hydroxypropylcellulose) (HPC)) was 95 % of control and the T/C (dose: 32.0 mg/kg/injection, schedule: Q01DX009 (ip), vehicle: Klucel (hydroxypropylcellulose) (HPC)) was 91 % of control.

For Nc1ccc2ccc(O)cc2c1, the T/C (dose: 75.0 mg/kg/injection, schedule: Q04DX003 (ip), vehicle: saline with Tween-80) was 105 % of control and the T/C (dose: 150.0 mg/kg/injection, schedule: Q04DX003 (ip), vehicle: saline with Tween-80) was 95 % of control.

In the case of COC(=O)C1=C(N)CCc2ccccc21, the T/C [4] is reported as 90 % of control and the T/C [5] is reported as 95 % of control.

With CCC(=O)/C=C/C1=C(C)CCCC1(C)C the T/C [3] was 104 % of control, the T/C [4] was 103 % of control and the T/C [5] was 92 % of control.

With CC(C)C(NC(=O)OC(C)(C)C)C(=O)O (stereo not drawn) the T/C [6] was 123 % of control and the T/C [7] was 101 % of control.

CC(=O)NC(C=O)C(O)C(O)C(O)C(=O)O (stereo not drawn) was tested, and the T/C [6] was 101 % of control, the T/C [7] was 100 % of control and the T/C [8] was 92 % of control.

In the case of Cc1c2ccncc2c(C)c2c1[nH]c1ccccc12, the T/C (dose: 1.25 mg/kg/injection, schedule: Q01DX009 (ip), vehicle: saline) is reported as 109 % of control, the T/C (dose: 1.25 mg/kg/injection, schedule: Q01DX009 (ip), vehicle: water) is reported as 102 % of control and the T/C (dose: 2.5 mg/kg/injection, schedule: Q01DX009 (ip), vehicle: saline) is reported as 113 % of control. The T/C (dose: 2.5 mg/kg/injection, schedule: Q01DX009 (ip), vehicle: water) was 103 % of control and 110 % of control, the T/C (dose: 5.0 mg/kg/injection, schedule: Q01DX009 (ip), vehicle: saline) was 120 % of control and the T/C (dose: 5.0 mg/kg/injection, schedule: Q01DX009 (ip), vehicle: water) was 110 % of control and 114 % of control. For the same compound, the T/C (dose: 8.0 mg/kg/injection, schedule: Q01DX005 (iv), vehicle: saline with Tween-80) was 106 % of control, the T/C (dose: 12.5 mg/kg/injection, schedule: Q04DX003 (ip), vehicle: distilled water + Tween-80) was 117 % of control and 121 % of control and the T/C (dose: 16.0 mg/kg/injection, schedule: Q01DX005 (ip), vehicle: saline with Tween-80) was 171 % of control. The T/C (dose: 16.0 mg/kg/injection, schedule: Q01DX005 (iv), vehicle: saline with Tween-80) was 110 % of control, the T/C (dose: 16.0 mg/kg/injection, schedule: Q01DX005 (oral), vehicle: saline with Tween-80) was 110 % of control and the T/C (dose: 25.0 mg/kg/injection, schedule: Q04DX003 (ip), vehicle: distilled water + Tween-80) was 119 % of control. For the same compound, the T/C (dose: 32.0 mg/kg/injection, schedule: Q01DX005 (ip), vehicle: saline with Tween-80) was 191 % of control, the T/C (dose: 32.0 mg/kg/injection, schedule: Q01DX005 (oral), vehicle: saline with Tween-80) was 108 % of control and the T/C (dose: 50.0 mg/kg/injection, schedule: Q04DX003 (ip), vehicle: Klucel (hydroxypropylcellulose) (HPC)) was 154 % of control. For the same compound, the T/C (dose: 64.0 mg/kg/injection, schedule: Q01DX005 (oral), vehicle: saline with Tween-80) was 117 % of control and the T/C (dose: 100.0 mg/kg/injection, schedule: Q04DX003 (ip), vehicle: distilled water + Tween-80) was 153 % of control.

In the case of CC(=N\[O-])/C(C)=N/O.CC(=N\[O-])/C(C)=N/O.CC(=O)[O-].CC(=O)[O-].O.[Rh+2].[Rh+2], the T/C (dose: 1.56 mg/kg/injection, schedule: Q01DX009 (ip), vehicle: saline) is reported as 115 % of control and the T/C (dose: 25.0 mg/kg/injection, schedule: Q01DX009 (ip), vehicle: saline) is reported as 115 % of control.

With CCCCCCCCCC(O)CCCC (stereo not drawn) the T/C [6] was 108 % of control, the T/C [7] was 105 % of control and the T/C [8] was 86 % of control.

In the case of CCCCN(CCCC)C(Cl)=Nc1ccccc1, the T/C [1] is reported as 89 % of control and 99 % of control, the T/C [2] is reported as 101 % of control and 102 % of control and the T/C [6] is reported as 101 % of control. For the same compound, the T/C [7] was 96 % of control and 103 % of control, the T/C [8] was 93 % of control and 105 % of control and the T/C (dose: 200.0 mg/kg/injection, schedule: Q01DX009 (ip), vehicle: Klucel (hydroxypropylcellulose) (HPC)) was 88 % of control and 100 % of control.

In the case of N#Cc1ccccc1C(C#N)c1ccc([N+](=O)[O-])cc1 (stereo not drawn), the T/C [4] is reported as 100 % of control and the T/C [5] is reported as 90 % of control.

For CCN(Cc1ccc(Cl)c(Cl)c1)c1ccc2nc(N)nc(N)c2c1C, the T/C (dose: 3.12 mg/kg/injection, schedule: Q01DX009 (ip), vehicle: distilled water + Tween-80) was 110 % of control, the T/C (dose: 3.13 mg/kg/injection, schedule: Q01DX009 (ip), vehicle: Klucel (hydroxypropylcellulose) (HPC)) was 89 % of control and the T/C [1] was 94 % of control. The T/C (dose: 6.25 mg/kg/injection, schedule: Q01DX009 (ip), vehicle: distilled water + Tween-80) was 115 % of control and the T/C (dose: 12.5 mg/kg/injection, schedule: Q01DX009 (ip), vehicle: distilled water + Tween-80) was 122 % of control.
